Results taken from PMC4163382, “Symbiotic Plant Peptides Eliminate Candida albicans Both In Vitro and in an Epithelial Infection Model and Inhibit the Proliferation of Immortalized Human Cells” (BioMed Research International, 2014).
Peptide text beside a SMILES is read from it.

What was measured:
[1] = test system: C. albicans strains WO-1 and Sc 5314; assay: Microdilution antifungal assay, summary for C. albicans; format: cell-based, Candida albicans; conditions: for Anticandidal activity against the yeast form of growing C. albicans: strains WO-1 and Sc 5314, LSM medium, microdilution plate assay
Method: (§1) The antifungal activity of the NCR peptides against C. albicans strains and other Candida species was determined in vitro using 96-well flat bottom microtiter plates (Sarstedt). Fifty microliters of dilutions from each peptide (final concentrations in the assays ranged from 2.5 to 100 μg/mL) was added to 50 μL of 10^4 cells mL^−1 and 10^5 cells mL^−1 in LSM. The plates were incubated at 30°C and the peptide concentrations that prevented the germination of yeast cells were determined by microscopic analysis and measurement of absorbance at 600 nm with a microtiter plate reader (FLUOstar OPTIMA; BMG Labtech) after 24 and 48 hours. Minimal inhibitory concentration (MIC) was determined as the lowest concentration of the peptide at which there was no visible and measurable growth after 24 hours of incubation. To determine whether the antifungal effect was fungistatic or fungicidal, 10 μL from each treatment was dropped onto solid YPD plate after 3 and 24 hours. Plates were incubated at 30°C for 48 hours and developing colonies were observed. Minimal fungicidal concentration (MFC) was defined where no fungal growth could be observed.

[2] = test system: C. albicans WO-1; format: cell-based, Candida albicans; conditions: for Minimal fungicidal concentration, 3 h: WO-1, 3 h; for Minimal fungicidal concentration, 24 h: WO-1, 24 h
Method: as §1

Row | MIC ([1]; Candida albicans, SC5314, comparator value given in text, strain, method and source not given, read-out: MIC of amphotericin B) [µM] | MIC of amphotericin B ([1]; comparator value given in text, strain, method and source not given) | SMILES | Anticandidal activity against the yeast form of growing C. albicans [1] | Minimal fungicidal concentration, 3 h [2] | Minimal fungicidal concentration, 24 h [2]
1 | – | – | CC[C@H](C)[C@H](NC(=O)[C@H](Cc1ccc(O)cc1)NC(=O)[C@H](CC(N)=O)NC(=O)[C@H](CCCNC(=N)N)NC(=O)[C@@H](NC(=O)[C@H](CCC(N)=O)NC(=O)[C@H](CCCNC(=N)N)NC(=O)[C@H](CS)NC(=O)[C@H](CC(=O)O)NC(=O)[C@H](CCCCN)NC(=O)[C@H](CC(N)=O)NC(=O)[C@@H](NC(=O)[C@@H](NC(=O)[C@H](CS)NC(=O)[C@H](CC(N)=O)NC(=O)[C@H](CCCNC(=N)N)NC(=O)[C@H](CO)NC(=O)[C@@H](NC(=O)[C@@H]1CCCN1C(=O)[C@H](CC(C)C)NC(=O)[C@H](Cc1ccccc1)NC(=O)[C@H](C)N)[C@@H](C)O)[C@@H](C)CC)[C@@H](C)O)C(C)C)C(=O)N[C@@H](C)C(=O)N[C@@H](CCCNC(=N)N)C(=O)N[C@@H](CS)C(=O)N[C@@H](CCCNC(=N)N)C(=O)N[C@@H](CCCCN)C(=O)NCC(=O)N[C@@H](CCC(N)=O)C(=O)N[C@@H](CS)C(=O)N[C@@H](CC(C)C)C(=O)N[C@@H](CCC(N)=O)C(=O)N[C@@H](CO)C(=O)N1CCC[C@H]1C(=O)N[C@H](C(=O)N[C@@H](CCCNC(=N)N)C(=O)O)C(C)C [NCR030] (H-AFLPTSRNCITNKDCRQVRNYIARCRKGQCLQSPVR-OH; N-terminus and C-terminus assumed) | exhibited anticandidal activity | 12.5 (±2) μg/mL | 16.5 (±5) μg/mL
2 | – | – | CC[C@H](C)[C@H](NC(=O)[C@H](CCCNC(=N)N)NC(=O)[C@H](CCCNC(=N)N)NC(=O)[C@H](CCCNC(=N)N)NC(=O)[C@@H](NC(=O)[C@H](CS)NC(=O)[C@H](Cc1ccc(O)cc1)NC(=O)CNC(=O)[C@H](CCCCN)NC(=O)[C@H](CCCNC(=N)N)NC(=O)[C@H](CS)NC(=O)[C@H](CCCNC(=N)N)NC(=O)[C@H](C)NC(=O)[C@H](CCCNC(=N)N)NC(=O)[C@H](Cc1ccc(O)cc1)NC(=O)[C@H](CC(N)=O)NC(=O)[C@H](CCCCN)NC(=O)[C@@H](NC(=O)[C@@H](NC(=O)[C@H](CO)NC(=O)[C@H](CS)NC(=O)[C@H](CCC(=O)O)NC(=O)[C@H](CCCCN)NC(=O)[C@H](CC(=O)O)NC(=O)[C@H](CO)NC(=O)[C@@H](NC(=O)[C@H](CS)NC(=O)[C@@H]1CCCN1C(=O)[C@H](CCCCN)NC(=O)[C@H](CO)NC(=O)[C@H](CC(C)C)NC(=O)[C@H](CCC(N)=O)NC(=O)[C@@H](NC(=O)[C@H](Cc1ccccc1)NC(=O)[C@H](C)N)[C@@H](C)CC)[C@@H](C)CC)[C@@H](C)CC)C(C)C)C(C)C)C(=O)N[C@@H](CCCNC(=N)N)C(=O)O [NCR044] (H-AFIQLSKPCISDKECSIVKNYRARCRKGYCVRRRIR-OH; N-terminus and C-terminus assumed) | exhibited anticandidal activity | 11 (±2) μg/mL | 6.25 (±1) μg/mL
3 | – | – | CSCC[C@H](NC(=O)[C@H](Cc1ccccc1)NC(=O)[C@H](CCCCN)NC(=O)[C@@H]1CCCN1C(=O)[C@H](CS)NC(=O)[C@H](CCCNC(=N)N)NC(=O)CNC(=O)[C@H](CC(=O)O)NC(=O)[C@H](CCCNC(=N)N)NC(=O)CNC(=O)[C@H](CS)NC(=O)[C@H](CC(C)C)NC(=O)[C@@H](NC(=O)[C@H](CCCNC(=N)N)NC(=O)[C@@H](N)CCSC)C(C)C)C(=O)N[C@@H](CS)C(=O)N[C@@H](CCCNC(=N)N)C(=O)N[C@H](C(=O)N[C@@H](Cc1ccccc1)C(=O)N[C@@H](CC(C)C)C(=O)O)[C@@H](C)O [NCR280] (H-MRVLCGRDGRCPKFMCRTFL-OH) | – | 10 (±2) μg/mL | 8 (±3) μg/mL
4 | 1.69 | ~ 1.7 μM | C[C@@H]1[C@H](O)[C@@H](C)/C=C/C=C/C=C/C=C/C=C/C=C/C=C/[C@H](O[C@@H]2O[C@H](C)[C@@H](O)[C@H](N)[C@@H]2O)C[C@@H]2O[C@](O)(C[C@@H](O)C[C@@H](O)[C@H](O)CC[C@@H](O)C[C@@H](O)CC(=O)O[C@H]1C)C[C@H](O)[C@H]2C(=O)O [amphotericin B, reference compound] | – | – | –
